Reference: patent US10898475B2, “Bach1 inhibitors in combination with Nrf2 activators and pharmaceutical compositions thereof” (vTv Therapeutics LLC, priority 2014, dated 2021)

Tested on: HMOX1 in Normal Human Lung Fibroblasts (NHLF)
Test: HMOX1 Protein Expression (immunostaining, fold induction or % positive cells over DMSO)
Details: for Hill slope of DMF dose response curves in Table 2: % Positive HMOX

- Fold Induction of HMOX (Cpd. 0.019 uM, DMF 0 uM): 2.08 fold
- Fold Induction of HMOX (Cpd. 0.019 uM, DMF 0.03 uM): 1.31 fold
- Fold Induction of HMOX (Cpd. 0.019 uM, DMF 0.1 uM): 1.23 fold
- Fold Induction of HMOX (Cpd. 0.019 uM, DMF 0.3 uM): 1.44 fold
- Fold Induction of HMOX (Cpd. 0.019 uM, DMF 1 uM): 2.17 fold
- Fold Induction of HMOX (Cpd. 0.019 uM, DMF 3 uM): 3.55 fold
- Fold Induction of HMOX (Cpd. 0.019 uM, DMF 10 uM): 5.12 fold
- Fold Induction of HMOX (Cpd. 0.019 uM, DMF 30 uM): 4.90 fold
- Fold Induction of HMOX (Cpd. 0.039 uM, DMF 0 uM): 2.51 fold
- Fold Induction of HMOX (Cpd. 0.039 uM, DMF 0.03 uM): 1.81 fold
- Fold Induction of HMOX (Cpd. 0.039 uM, DMF 0.1 uM): 1.52 fold
- Fold Induction of HMOX (Cpd. 0.039 uM, DMF 0.3 uM): 1.81 fold
- Fold Induction of HMOX (Cpd. 0.039 uM, DMF 1 uM): 2.60 fold
- Fold Induction of HMOX (Cpd. 0.039 uM, DMF 3 uM): 4.00 fold
- Fold Induction of HMOX (Cpd. 0.039 uM, DMF 10 uM): 5.64 fold
- Fold Induction of HMOX (Cpd. 0.039 uM, DMF 30 uM): 5.52 fold
- Fold Induction of HMOX (Cpd. 0.078 uM, DMF 0 uM): 4.34 fold
- Fold Induction of HMOX (Cpd. 0.078 uM, DMF 0.03 uM): 2.35 fold
- Fold Induction of HMOX (Cpd. 0.078 uM, DMF 0.1 uM): 2.87 fold
- Fold Induction of HMOX (Cpd. 0.078 uM, DMF 0.3 uM): 3.21 fold
- Fold Induction of HMOX (Cpd. 0.078 uM, DMF 1 uM): 3.83 fold
- Fold Induction of HMOX (Cpd. 0.078 uM, DMF 3 uM): 4.20 fold
- Fold Induction of HMOX (Cpd. 0.078 uM, DMF 10 uM): 6.52 fold
- Fold Induction of HMOX (Cpd. 0.078 uM, DMF 30 uM): 4.80 fold
- Fold Induction of HMOX (Cpd. 0.156 uM, DMF 0 uM): 6.46 fold
- Fold Induction of HMOX (Cpd. 0.156 uM, DMF 0.03 uM): 5.22 fold
- Fold Induction of HMOX (Cpd. 0.156 uM, DMF 0.1 uM): 4.89 fold
- Fold Induction of HMOX (Cpd. 0.156 uM, DMF 0.3 uM): 5.17 fold
- Fold Induction of HMOX (Cpd. 0.156 uM, DMF 1 uM): 6.04 fold
- Fold Induction of HMOX (Cpd. 0.156 uM, DMF 3 uM): 7.69 fold
- Fold Induction of HMOX (Cpd. 0.156 uM, DMF 10 uM): 7.50 fold
- Fold Induction of HMOX (Cpd. 0.156 uM, DMF 30 uM): 6.18 fold
SMILES: Cn1c(Nc2nc3ccc(C(F)(F)F)cc3s2)nc2cc(C(=O)NCCOCCO)ccc21 [HPP-D, 1-Methyl-2-(6-trifluoromethyl-benzothiazol-2-ylamino)-1H-benzoimidazole-5-carboxylic acid [2-(2-hydroxy-ethoxy)-ethyl]-amide]
- Hill slope of DMF dose response curves in Table 2 (Bach1 Inhibitor Conc. 0.019 uM): 2.23
- Hill slope of DMF dose response curves in Table 2 (Bach1 Inhibitor Conc. 0.039 uM): 1.69
- Hill slope of DMF dose response curves in Table 2 (Bach1 Inhibitor Conc. 0.078 uM): 0.90
- Hill slope of DMF dose response curves in Table 2 (Bach1 Inhibitor Conc. 0.156 uM): 0.23
- % Cells Positive HMOX (Cpd. 0.019 uM, DMF 0 uM): 19.42%
- % Cells Positive HMOX (Cpd. 0.019 uM, DMF 0.03 uM): 4.94%
- % Cells Positive HMOX (Cpd. 0.019 uM, DMF 0.1 uM): 4.52%
- % Cells Positive HMOX (Cpd. 0.019 uM, DMF 0.3 uM): 7.63%
- % Cells Positive HMOX (Cpd. 0.019 uM, DMF 1 uM): 26.41%
- % Cells Positive HMOX (Cpd. 0.019 uM, DMF 3 uM): 80.18%
- % Cells Positive HMOX (Cpd. 0.019 uM, DMF 10 uM): 96.12%
- % Cells Positive HMOX (Cpd. 0.019 uM, DMF 30 uM): 84.02%
- % Cells Positive HMOX (Cpd. 0.039 uM, DMF 0 uM): 28.04%
- % Cells Positive HMOX (Cpd. 0.039 uM, DMF 0.03 uM): 11.95%
- % Cells Positive HMOX (Cpd. 0.039 uM, DMF 0.1 uM): 6.75%
- % Cells Positive HMOX (Cpd. 0.039 uM, DMF 0.3 uM): 18.66%
- % Cells Positive HMOX (Cpd. 0.039 uM, DMF 1 uM): 38.70%
- % Cells Positive HMOX (Cpd. 0.039 uM, DMF 3 uM): 78.65%
- % Cells Positive HMOX (Cpd. 0.039 uM, DMF 10 uM): 99.17%
- % Cells Positive HMOX (Cpd. 0.039 uM, DMF 30 uM): 91.91%
- % Cells Positive HMOX (Cpd. 0.078 uM, DMF 0 uM): 73.95%
- % Cells Positive HMOX (Cpd. 0.078 uM, DMF 0.03 uM): 33.51%
- % Cells Positive HMOX (Cpd. 0.078 uM, DMF 0.1 uM): 44.61%
- % Cells Positive HMOX (Cpd. 0.078 uM, DMF 0.3 uM): 61.50%
- % Cells Positive HMOX (Cpd. 0.078 uM, DMF 1 uM): 84.85%
- % Cells Positive HMOX (Cpd. 0.078 uM, DMF 3 uM): 90.28%
- % Cells Positive HMOX (Cpd. 0.078 uM, DMF 10 uM): 97.73%
- % Cells Positive HMOX (Cpd. 0.078 uM, DMF 30 uM): 91.28%
- % Cells Positive HMOX (Cpd. 0.156 uM, DMF 0 uM): 96.31%
- % Cells Positive HMOX (Cpd. 0.156 uM, DMF 0.03 uM): 92.53%
- % Cells Positive HMOX (Cpd. 0.156 uM, DMF 0.1 uM): 88.16%
- % Cells Positive HMOX (Cpd. 0.156 uM, DMF 0.3 uM): 94.48%
- % Cells Positive HMOX (Cpd. 0.156 uM, DMF 1 uM): 97.74%
- % Cells Positive HMOX (Cpd. 0.156 uM, DMF 3 uM): 99.20%
- % Cells Positive HMOX (Cpd. 0.156 uM, DMF 10 uM): 100.00%
- % Cells Positive HMOX (Cpd. 0.156 uM, DMF 30 uM): 92.22%
- combination effect in terms of the % HMOX positive cells (combination with DMF at concentrations below their maximum effect (Table 2)): additive or greater than additive
- change of Hill slope of the DMF dose response curve (FIG. 5) (upon increasing amounts of the Bach1 Inhibitor): reduced
